Measured values as given in patent US20100267742A1, “COMBINATION TARGETED THERAPY FOR LUNG CANCER” (RUSH UNIVERSITY MEDICAL CENTER, priority 2009, published 2010).
Entries after “also recorded” stand apart in the source; their conditions may differ.

What was measured:
Assay type in all cases: cell-based, human
[1] = tested on: H1975 cells; assay: Cell proliferation / cell survival (viability) assay, Calcein-AM, 72 hours; conditions: H1975 cell line, two EGFR mutations, alone or in combination
Description: (§1) Lysates were prepared for immunoprecipitation and Western blotting from serum-starved Calu3 and H1975 cell lines after incubation with kinase inhibitors, including enzastaurin for PKCβ, and SU11274 for c-met. Specific site directed anti-phospho-antibodies were used to probe Western blots to determine the effect of respective inhibitors on downstream kinase activation. Proliferation and cell viability assays were performed with 10,000 cells seeded into 96-well plates and incubated with inhibitors in serum-starved cultures for 72 hours. Cell viability was determined by the addition of Calcein-AM (calcein-acetoxymethyl ester, diacetate) for the final 2 hours and plates were read at 515 nm. Lung carcinoma cell lines: H1975 and Calu-3 were cultured following ATCC guidelines. Cells are removed from flasks with cell dissociation buffer in PBS.

[2] = tested on: Calu3 cells; assay: as above; conditions: for cell survival / cell viability / sensitivity: Calu3, 72 hours in culture, serum-starved; for effect on cell number (3-factor ANOVA): Calu3 cell line, no EGFR mutation, alone or in combination
Description: as §1

[3] = tested on: kinase and receptor phosphorylation in Calu3 cells; assay: Western blot with anti-phospho antibodies on lysates of serum-starved cells; conditions: for Akt (ser473) phosphorylation / EGFR (Y1068) phosphorylation: low doses alone versus combination
Description: (§2) Lysates were prepared for immunoprecipitation and Western blotting from serum-starved Calu3 and H1975 cell lines after incubation with kinase inhibitors, including enzastaurin for PKCβ, and SU11274 for c-met. Specific site directed anti-phospho-antibodies were used to probe Western blots to determine the effect of respective inhibitors on downstream kinase activation. Proliferation and cell viability assays were performed with 10,000 cells seeded into 96-well plates and incubated with inhibitors in serum-starved cultures for 72 hours. Cell viability was determined by the addition of Calcein-AM (calcein-acetoxymethyl ester, diacetate) for the final 2 hours and plates were read at 515 nm. Antibodies: Anti-EGFR, antiphospho-EGFR (Tyr845), anti-phospho-EGFR (Tyr1068), anti-phospho-Akt (Ser473), anti phospho-Erk1,2 (Thr202/Tyr204), anti-phospho-PKCα,β) were purchased from Cell Signaling. Cell cultures: Cells were serum starved for 18-24 hours prior to incubation with kinase inhibitors. Enzastaurin was added for a minimum of 3.5 hours of culture and SU11274 for at least one hour before preparation of lysates. Cell lysates: Media were removed from confluent monolayers of cells immediately before addition of lysis buffer (1 μg/ml aprotinin, 1 μg/ml leupeptin, 200 μM sodium vanadate (NaVO4), 0.1% NP-40, […], 20 mM EDTA, 1 mM PMSF in 50 mM Tris-HCl (pH 7.5). Cells were harvested and sonicated in lysis buffer. After 15 minutes on ice, lysates were microcentrifuged for 20 minutes. Supernatants were removed and protein concentrations therein determined spectrophotometrically with protein detection reagent. Western blots: 10-30 μg of lysate were mixed with loading buffer and boiled before loading into 7.5% Tris-HCl pre-cast SDS-PAGE gels for electrophoresis in SDS-glycine buffer for 90 minutes. Separated proteins were transferred from the gel to Hybond ECL nitrocellulose membrane using a Trans-Blot SD semi-dry transfer cell apparatus. The transfer ran at 20 volts for 35-40 minutes. Nitrocellulose membranes were washed in 1×Tris Buffered Saline-0.1% Tween 20 (TBS-T) then blocked with 5% BSA or 5% milk in TBS-T on rotator for one hour at room temperature or overnight at 4° C. 0.2% Sodium Azide (NaN3) was added to all blocking and primary antibody solutions. Nitrocellulose membranes were probed with 1:1000 or 1:2000 primary antibody.

[4] = tested on: kinase phosphorylation in H1975 cells; assay: as above
Description: as §2

Compound	effect on cell number (3-factor ANOVA) ([1]; listed as SU)	cell survival / cell viability / sensitivity [2]	effect on cell number (3-factor ANOVA) ([2]; listed as SU)	Akt (ser473) phosphorylation ([3]; Calu3)	EGFR (Y1068) phosphorylation ([3]; Calu3)	effect on cell number (3-factor ANOVA) ([1]; listed as Enza150)	effect on cell number (3-factor ANOVA) ([1]; listed as Enzo150)	effect on cell number (3-factor ANOVA) ([2]; listed as Enzo 150)	c-met phosphorylation ([3]; Calu3)	erbB3 phosphorylation ([3]; Calu3)	phosphorylation of PKC family members (pan-antibody against common phosphorylation sites) ([3]; Calu3)	sic phosphorylation ([3]; Calu3)	PKCαβ phosphorylation ([3]; Calu3, 3.5 hours in culture, serum-free medium)	sic phosphorylation ([4]; H1975)	PKCαβ phosphorylation ([4]; H1975, short-term incubation, serum-free medium)
Cc1[nH]c(/C=C2\C(=O)Nc3ccc(S(=O)(=O)N(C)c4cccc(Cl)c4)cc32)c(C)c1C(=O)N1CCN(C)CC1 [SU11274]	neither SU nor Enzo150 alone has a significant effect; also recorded: not significantly effective	significantly decreases the numbers of NSCLC cells	significant effect	only minimal effects	only minimal effects										
Cn1cc(C2=C(c3cn(C4CCN(Cc5ccccn5)CC4)c4ccccc34)C(=O)NC2=O)c2ccccc21 [enzastaurin]		greatest sensitivity; also recorded: significantly decreases the numbers of NSCLC cells		only minimal effects	only minimal effects	not significantly effective	neither SU nor Enzo150 alone has a significant effect	significant effect	decreased	decreased	does not inhibit phosphorylation of all PKC family members	substantially decreased	dose dependent inhibition; also recorded: inhibited	only a moderate effect	inhibited
